According to the OligoGym collection:
Bases are written 5' to 3'; sugars and linkages follow in the same order, as letters with counts (s phosphorothioate, o phosphodiester; PS: all linkages phosphorothioate). The collection does not say whether C is 5-methylated. l = locked nucleic acid (LNA); d = 2'-deoxy (DNA)

target: Tau; experiment: rat primary cortical neurons, FLIPR, 25 uM ASO

Row | Sequence | calcium oscillation score
1 | ACCTTTTTCCATCTTACTAA (sugars l4 d13 l3, PS) | 52 % of control
2 | ACGCACCAGGAACCTTCCAG (sugars l3 d14 l3, PS) | 36.7 % of control
3 | ACGTGGGTGATATTGTCCAG (sugars l3 d14 l3, PS) | 0 % of control
4 | ACGTTGCTAAGATCCA (sugars l3 d10 l3, PS) | 18.1 % of control
5 | ACTAACTCTAAGTAGACCCT (sugars l3 d14 l3, PS) | 40.3 % of control
6 | ACTAATATTAACACTAT (sugars l4 d9 l4, PS) | 79.5 % of control
7 | ACTAGCCCACCCATCAATTT (sugars l3 d14 l3, PS) | 12.9 % of control
8 | ACTATGAAATCCTTCT (sugars l4 d8 l4, PS) | 92.1 % of control
9 | ACTCAAATCAATTCTCATTT (sugars l4 d12 l4, PS) | 70.1 % of control
10 | ACTCAACATTACCCTTAAA (sugars l4 d11 l4, PS) | 82.4 % of control
11 | ACTCAACATTACCCTTAAAT (sugars l4 d14 l2, PS) | 71.5 % of control
12 | ACTCAGTTCTCTATAAT (sugars l4 d9 l4, PS) | 64.1 % of control
13 | ACTCATCAACACCTTTTAAT (sugars l2 d14 l4, PS) | 63 % of control
14 | ACTCATTTACCAATTATCTT (sugars l2 d14 l4, PS) | 60.6 % of control
15 | ACTCTAAGTAGACCCTGGCC (sugars l3 d14 l3, PS) | 4.76 % of control
16 | ACTCTTAGCATCCACTT (sugars l4 d11 l2, PS) | 40.6 % of control
17 | ACTCTTTGAACACCCCA (sugars l2 d12 l3, PS) | 88.9 % of control
18 | ACTCTTTGAACACCCCAT (sugars l4 d12 l2, PS) | 38.3 % of control
19 | ACTGATCATAATCCTA (sugars l3 d9 l4, PS) | 81.1 % of control
20 | ACTGATCATAATCCTAC (sugars l4 d9 l4, PS) | 68.2 % of control
21 | ACTGCGAGGAGCAGCT (sugars l3 d10 l3, PS) | 48.1 % of control
22 | ACTGCTCAGCTAAGACCCTC (sugars l3 d14 l3, PS) | 23.9 % of control

Row | Sequence | calcium oscillation score
23 | ACTGGCGACTTGTACACGAT (sugars l3 d14 l3, PS) | 0 % of control
24 | ACTGGTTAGCCCTAAA (sugars l3 d10 l3, PS) | 3.83 % of control
25 | ACTGGTTTGTAGACTATTTG (sugars l3 d14 l3, PS) | 0 % of control
26 | ACTGTTACACATTTATC (sugars l4 d9 l4, PS) | 79.8 % of control
27 | ACTTAAAATTTTTCTTATT (sugars l4 d11 l4, PS) | 75.1 % of control
28 | ACTTAAATTTATTTTCTTTT (sugars l4 d12 l4, PS) | 55.8 % of control
29 | ACTTACTGATCATAAT (sugars l4 d8 l4, PS) | 77.2 % of control
30 | ACTTATCTATCCATCTAT (sugars l4 d11 l3, PS) | 80.2 % of control
31 | ACTTATCTATCCATCTATT (sugars l3 d12 l4, PS) | 55.8 % of control
32 | ACTTCTAATTTAGTCAC (sugars l4 d9 l4, PS) | 77.2 % of control
33 | ACTTGGGTGGAGTACGGACC (sugars l3 d14 l3, PS) | 0 % of control
34 | ACTTGTACACGATCTCCGCC (sugars l3 d14 l3, PS) | 103 % of control
35 | ACTTTATCCCTCCATGA (sugars l3 d11 l3, PS) | 39.6 % of control
36 | ACTTTATCCCTCCATGAT (sugars l3 d11 l4, PS) | 47.4 % of control
37 | ACTTTATTTCCAAATTCACT (sugars l4 d11 l5, PS) | 115 % of control
38 | ACTTTATTTCCAAATTCACT (sugars l5 d10 l5, PS) | 98 % of control
39 | ACTTTATTTCCAAATTCACT (sugars l5 d11 l4, PS) | 138 % of control
40 | ACTTTATTTCCAAATTCACTT (sugars l5 d11 l5, PS) | 121 % of control
41 | ACTTTATTTCCAAATTCACTTTTAC (sugars l1 d1 l2 d18 l3, PS) | 23.6 % of control
42 | ACTTTATTTCCAAATTCACTTTTAC (sugars l1 d19 l5, PS) | 86.5 % of control
43 | ACTTTATTTCCAAATTCACTTTTAC (sugars l3 d18 l4, PS) | 35.4 % of control
44 | ACTTTATTTCCAAATTCACTTTTAC (sugars l4 d16 l2 d1 l2, PS) | 29.5 % of control

Row | Sequence | calcium oscillation score
45 | ACTTTATTTCCAAATTCACTTTTAC (sugars ldllddddddddddddddddllldl, PS) | 76.7 % of control
46 | ACTTTATTTCCAAATTCACTTTTAC (sugars ldllldddddddddddddddllddl, PS) | 17.7 % of control
47 | ACTTTATTTCCAAATTCACTTTTAC (sugars llddldddddddddddddddllddl, PS) | 17.7 % of control
48 | ACTTTATTTCCAAATTCACTTTTAC (sugars lldldddddddddddddddddlldl, PS) | 29.5 % of control
49 | ACTTTATTTCCAAATTCACTTTTAC (sugars lldlddddddddddddddddldlll, PS) | 35.4 % of control
50 | ACTTTATTTCCAAATTCACTTTTAC (sugars llldddddddddddddddddldldl, PS) | 17.7 % of control
51 | ACTTTCCTAATTCCCAAATT (sugars l3 d15 l2, PS) | 63.3 % of control
52 | ACTTTTGAACCCATTCC (sugars l2 d12 l3, PS) | 83.6 % of control
53 | AGAAATAAGTGGTAGT (sugars l2 d11 l3, PS) | 102 % of control
54 | AGAAATAAGTGGTAGT (sugars l2 d12 l2, PS) | 86.9 % of control
55 | AGAAATAAGTGGTAGT (sugars l3 d9 l4, PS) | 101 % of control
56 | AGAAATAAGTGGTAGT (sugars l3 d11 l2, PS) | 85.7 % of control
57 | AGAAATAAGTGGTAGT (sugars l4 d8 l4, PS) | 88.1 % of control
58 | AGAAATAAGTGGTAGT (sugars l4 d9 l3, PS) | 89.3 % of control
59 | AGAACTTCTAGTTATACAGT (sugars l3 d14 l3, PS) | 35.7 % of control
60 | AGAATATTACACCATC (sugars l4 d8 l4, PS) | 102 % of control
61 | AGACACCTCGTCAGCTAGCG (sugars l3 d14 l3, PS) | 9.07 % of control
62 | AGACCACATTTCCATCC (sugars l2 d13 l2, PS) | 72 % of control
63 | AGACCACATTTCCATCCC (sugars l1 d15 l2, PS) | 71.6 % of control
64 | AGACTATTTGCACACTGCCG (sugars l3 d14 l3, PS) | 40.7 % of control
65 | AGAGACCACATTATCATCCA (sugars l3 d14 l3, PS) | 26.2 % of control
66 | AGAGAGACCACATTATCATC (sugars l3 d14 l3, PS) | 68.5 % of control

Row | Sequence | calcium oscillation score
67 | AGAGGAACGTGTGGAT (sugars l3 d10 l3, PS) | 25.9 % of control
68 | AGAGGCACAAGTCCT (sugars l3 d9 l3, PS) | 74.3 % of control
69 | AGAGGCACAAGTCCTT (sugars l3 d10 l3, PS) | 78.1 % of control
70 | AGATATTCATTCCCTCA (sugars l3 d12 l2, PS) | 53 % of control
71 | AGATCATCCATTTTCTT (sugars l2 d11 l4, PS) | 55.3 % of control
72 | AGCAATAGCAAACAG (sugars l3 d9 l3, PS) | 52.8 % of control
73 | AGCAATAGCAAACAGG (sugars l3 d10 l3, PS) | 48.8 % of control
74 | AGCAGAGGAACGTGTG (sugars l3 d10 l3, PS) | 11.1 % of control
75 | AGCAGGTTAAGTGATTAACC (sugars l3 d14 l3, PS) | 16 % of control
76 | AGCATCAGAGGTTTCA (sugars l3 d10 l3, PS) | 0 % of control
77 | AGCCACACTTGGAGGTCACC (sugars l3 d14 l3, PS) | 0 % of control
78 | AGCCACTGTTGCCACA (sugars l2 d12 l2, PS) | 39.3 % of control
79 | AGCCCATTTACAATTCA (sugars l2 d11 l4, PS) | 76.7 % of control
80 | AGCCCTAAAGTCCCAG (sugars l3 d10 l3, PS) | 38.1 % of control
81 | AGCCTCTAGCCACATGGACC (sugars l3 d14 l3, PS) | 16.1 % of control
82 | AGCGTGATCTTCCATC (sugars l3 d10 l3, PS) | 101 % of control
83 | AGCTACTCACAACCCA (sugars l2 d11 l3, PS) | 65.6 % of control
84 | AGCTGGGTGGTGTCTTTGGA (sugars l3 d14 l3, PS) | 0 % of control
85 | AGCTTCCACATTTTACA (sugars l3 d12 l2, PS) | 63.8 % of control
86 | AGCTTCGTCTTCCAGGCTGG (sugars l3 d14 l3, PS) | 13.3 % of control
87 | AGCTTGTGGGTTTCAATCTT (sugars l3 d14 l3, PS) | 0 % of control
88 | AGCTTTGAGTTGAGGG (sugars l3 d10 l3, PS) | 0 % of control

Row | Sequence | calcium oscillation score
89 | AGGAAATCCACAGGGA (sugars l3 d10 l3, PS) | 0 % of control
90 | AGGCAAAGGTTTATCTTCCA (sugars l3 d14 l3, PS) | 33 % of control
91 | AGGCACAAGTCCTTA (sugars l3 d9 l3, PS) | 107 % of control
92 | AGGCATGATTGTGGGC (sugars l3 d10 l3, PS) | 0 % of control
93 | AGGCGCGAGCAGCG (sugars l3 d8 l3, PS) | 100 % of control
94 | AGGGACCCAATCTTCG (sugars l3 d10 l3, PS) | 73.3 % of control
95 | AGGGACGTGGGTGATATTGT (sugars l3 d14 l3, PS) | 1.3 % of control
96 | AGGTATCCAGCCATATTTCA (sugars l3 d14 l3, PS) | 20.2 % of control
97 | AGGTCAACTGGTTT (sugars l3 d8 l3, PS) | 117 % of control
98 | AGGTCAACTGGTTTGT (sugars l3 d10 l3, PS) | 0 % of control
99 | AGGTCAACTGGTTTGTAGAC (sugars l3 d14 l3, PS) | 0 % of control
100 | AGGTCACCTTGCTCAG (sugars l3 d10 l3, PS) | 52.8 % of control
101 | AGGTCTGGCATGGGC (sugars l3 d9 l3, PS) | 47.6 % of control
102 | AGGTTAAGTGATTAACCAAT (sugars l3 d14 l3, PS) | 115 % of control
103 | AGTCAAGCATCACGTT (sugars l3 d10 l3, PS) | 42.2 % of control
104 | AGTCACTCTGGTGA (sugars l3 d8 l3, PS) | 97.1 % of control
105 | AGTCCCGAGCCAAAG (sugars l3 d9 l3, PS) | 36.6 % of control
106 | AGTCCCGTCTTTGC (sugars l3 d8 l3, PS) | 2.61 % of control
